The values that follow come from article PMC9088311, “Cyclic Thiosulfonates for Thiol-Mediated Uptake: Cascade Exchangers, Transporters, Inhibitors” (JACS Au, 2022).

“And” between values parts separate entries of the source, which are not always exact repeats. Identical values can stand only once. Like-named read-outs stand apart in the source and are kept apart here. Marks after values point to notes of the source that are not given here.

The subject of this assay is lentivirus with D614G SC2 spike protein, A549 cells overexpressing ACE2 and TMPRSS2. Format: cell-based, SARS-CoV-2. On the set-up: key to qualitative inhibition of SC2 uptake (heatmap): –: −: inactive; ++: qualitative inhibition of SC2 uptake. The conditions noted are these: for IC50: read-out: IC50 of SC2 lentivector entry.

`CC(C)(C)OC(=O)NCCNC(=O)O[C@H]1CSS(=O)(=O)C[C@H]1O[Si](C)(C)C(C)(C)C` (racemic) [Compound 50]: the “VE, vector entry” value (inhibitor 5 μM (1 h), lentivirus 6 h, 3 days expression, n = 3, ±SD) came out at 100 ± 40%. In the case of `O=S1(=O)C[C@H](O)[C@H](O)CS1` (stereo in doubt) [Compound 3, (4S,5R)-4,5-dihydroxy-1,2-dithiane-1,1-dioxide], the “inhibition of SC2 lentivector entry (in words)” value (from here on “inhibition … (in words)”) was “inactive” and the “qualitative inhibition of SC2 uptake (heatmap)” value (from here on “qualitative inhibition”) was “++”.

With `CC(C)(C)[Si](C)(C)OC1CS(=O)(=O)SCC1OC(=O)NCCCCCCNC(=O)OC1CSS(=O)(=O)CC1O[Si](C)(C)C(C)(C)C` (stereo not drawn) [Compound 4], the “VE, vector entry” value amounted to 46 ± 8%; the IC50 (commonly the midpoint of a concentration-inhibition curve) is ~10 µM and ~5 µM. Regarding `CC(C)(C)[Si](C)(C)O[C@@H]1CS(=O)(=O)SC[C@@H]1O` [Compound 6], the “VE, vector entry” value came to 105 ± 3%. Regarding `O=C1O[C@H]2CSS(=O)(=O)C[C@H]2O1` [Compound 11], the “VE, vector entry” value is listed as 4 ± 1%. Same read-out and setting: as for `CC1(C)O[C@H]2CSS(=O)(=O)C[C@H]2O1` [Compound 13], the figure is 80 ± 20%. For the compound `O=C(O)c1cc(SSc2ccc([N+](=O)[O-])c(C(=O)O)c2)ccc1[N+](=O)[O-]` [Compound 16, 5,5’-Dithiobis(2-nitrobenzoic acid), reference compound], the “VE, vector entry” value is listed as >100%. The “inhibition … (in words)” value (5 μM) was “weak activation rather than inhibition”. Take `O=C(NCCCCCCNC(=O)O[C@H]1CSS(=O)(=O)C[C@H]1OCc1ccccc1)O[C@H]1CSS(=O)(=O)C[C@H]1OCc1ccccc1` [Compound 33]: the “VE, vector entry” value is on record as 56 ± 12% and the IC50 is ~5 µM. As for `CC(C)(C)OC(=O)NCCNC(=O)O[C@H]1CSS(=O)(=O)C[C@H]1O` [Compound 34], the “VE, vector entry” value was found to be 8 ± 6%.

As for `O=C(N[C@H]1CCS(=O)(=O)SC1)N[C@H]1CCS(=O)(=O)SC1` [Compound 35], the “VE, vector entry” value is listed as 25 ± 3% and the “inhibition … (in words)” value was “inactivity”. Besides, the “inhibition … (in words)” value (50 μM) was “high activity”. For `CC(=O)O[C@H]1CSS(=O)(=O)C[C@H]1O` [Compound 36], the “VE, vector entry” value is listed as 34 ± 3%.

Turning to `O=S(O)CC(O)C(O)CSSCC(O)C(O)CS(=O)O` (stereo not drawn) [Compound 37], the “VE, vector entry” value worked out at 42 ± 32%. The same measure, in the same setting: as for `CC(C)(C)[Si](C)(C)O[C@@H]1CS(=O)(=O)SC[C@@H]1OC(=O)NCC[N+](C)(C)C` [Compound 38], the figure is 43 ± 26%. The same measure, in the same setting: as for `NCCNC(=O)O[C@H]1CSS(=O)(=O)C[C@H]1O` [Compound 39], the figure is 52 ± 31%; as for `O=S(O)CC(O)C(O)CSSCCSSCC(O)C(O)CS(=O)O` (stereo not drawn) [Compound 40], 64 ± 25%.

`O=C(NCCCCCCNC(=O)O[C@H]1CSS(=O)(=O)C[C@H]1O)O[C@H]1CSS(=O)(=O)C[C@H]1O` [Compound 41]: the “VE, vector entry” value is reported as >100 ^f % and the “inhibition … (in words)” value is “inactive”. As for `CC(C)(C)[Si](C)(C)O[C@H]1CS(=O)(=O)SC[C@H]1OC(=O)NCCNC(=O)CC(O)(CC(=O)NCCNC(=O)O[C@H]1CSS(=O)(=O)C[C@H]1O[Si](C)(C)C(C)(C)C)C(=O)NCCNC(=O)O[C@@H]1CSS(=O)(=O)C[C@@H]1O[Si](C)(C)C(C)(C)C` (stereo partly drawn) [Compound 42], the “VE, vector entry” value is recorded as 97 ± 15%. As for `CCCNC(=O)O[C@H]1CSS(=O)(=O)C[C@H]1O[Si](C)(C)C(C)(C)C` [Compound 43], the “VE, vector entry” value is recorded as 99 ± 12% and the “inhibition … (in words)” value was “inactivity”. For `C#CCNC(=O)CC[C@H](NC(=O)COCCNC(=O)O[C@H]1CSS(=O)(=O)C[C@H]1O[Si](C)(C)C(C)(C)C)C(=O)NCCOCCNC(=O)O[C@H]1CSS(=O)(=O)C[C@H]1O[Si](C)(C)C(C)(C)C` [Compound 44], the “VE, vector entry” value was 103 ± 12%. As to `O=C(O)Cn1[se]c2ccccc2c1=O` [Compound 45, reference compound], the “VE, vector entry” value worked out at 31 ± 3% and the “qualitative inhibition” value is “++”. The “inhibition … (in words)” value (50 μM) is “more active and nontoxic”. With `O=c1c2ccccc2[se]n1-c1ccccc1` [Compound 46, Ebselen, reference compound], the “VE, vector entry” value came out at 65 ± 13%. The “inhibition … (in words)” value (50 μM) is on record as “more toxic than active”.

As to `CCN1C(=O)C2SSSSC1C(=O)N2CC(=O)O` (stereo not drawn) [Compound 47, reference compound], the “VE, vector entry” value is on record as 83 ± 12% and the “qualitative inhibition” value is “–”.

As for `CC(=O)/C=C1/C(=O)N(C)c2ccccc21` [Compound 48, super-cinnamaldehyde, reference compound], the “VE, vector entry” value is listed as >100%. In addition, the “inhibition … (in words)” value (5 μM) is recorded as “weak activation rather than inhibition”. Consider `CC#CI1OC(=O)c2ccccc21` [Compound 49, reference compound], for which the “VE, vector entry” value is given as >100%; the “inhibition … (in words)” value was “did not inhibit”; the “qualitative inhibition” value was “–”.
